Measurements reported in patent publication US10011607B2, “Ethynyl derivatives” (Hoffmann-La Roche Inc., priority 2015, dated 2018).

Target: human mGlu4 receptor (Homo sapiens (Human), UniProt Q14833)
Assay: Ca2+ mobilization in vitro assay on recombinant human mGlu4 expressed in HEK293 cells (PAM)
Type: cell-based
Conditions: for Emax: HEK293, maximal response in % of maximal stimulatory effect of saturating L-AP4, read-out: Eff. (%); for EC50: HEK293 cells, human mGlu4, in presence of EC20 of L-AP4, read-out: EC50 (nM) mGlu4PAM
Source text: FIG. 1: Illustrates the experimental outline for mGlu4 PAM Ca^2+ mobilization screening assay and the determination of EC50 and % Emax values. […] A depression of the signal observed after addition of the EC20 concentration of L-AP4 was indicative of an inhibitory activity of the test compound.
Determination of EC50 Values Using a Ca2+ Mobilization In Vitro Assay on Recombinant Human mGlu4 Expressed in HEK293 Cells:
A monoclonal HEK-293 cell line stably transfected with a cDNA encoding for the human mGlu4 receptor was generated; for the work with mGlu4 Positive Allosteric Modulators (PAMs), a cell line with low receptor expression levels and low constitutive receptor activity was selected to allow the differentiation of agonistic versus PAM activity. Cells were cultured according to standard protocols (Freshney, 2000) in Dulbecco's Modified Eagle Medium with high glucose supplemented with 1 mM glutamine, 10% (vol/vol) heat-inactivated bovine calf serum, Penicillin/Streptomycin, 50 μg/ml hygromycin and 15 μg/ml blasticidin (all cell culture reagents and antibiotics from Invitrogen, Basel, Switzerland).
About 24 hrs before an experiment, 5×10^4 cells/well were seeded in poly-D-lysine coated, black/clear-bottomed 96-well plates. The cells were loaded with 2.5 μM Fluo-4AM in loading buffer (1×HBSS, 20 mM HEPES) for 1 hr at 37° C. and washed five times with loading buffer. The cells were transferred into a Functional Drug Screening System 7000 (Hamamatsu, Paris, France), and 11 half logarithmic serial dilutions of test compound at 37° C. were added and the cells were incubated for 10-30 min. with on-line recording of fluorescence. Following this pre-incubation step, the agonist (2S)-2-amino-4-phosphonobutanoic acid (L-AP4) was added to the cells at a concentration corresponding to EC20 with on-line recording of fluorescence; in order to account for day-to-day variations in the responsiveness of cells, the EC20 of L-AP4 was determined immediately ahead of each experiment by recording of a full dose-response curve of L-AP4.
Responses were measured as peak increase in fluorescence minus basal (i.e. fluorescence without addition of L-AP4), normalized to the maximal stimulatory effect obtained with saturating concentrations of L-AP4. Graphs were plotted with the % maximal stimulatory using XLfit, a curve fitting program that iteratively plots the data using Levenburg Marquardt algorithm. The single site competition analysis equation used was y=A+((B−A)/(1+((x/C)D))), where y is the % maximal stimulatory effect, A is the minimum y, B is the maximum y, C is the EC50, x is the log 10 of the concentration of the competing compound and D is the slope of the curve (the Hill Coefficient). From these curves the EC50 (drug concentration at which 50% of the maximal receptor activation was achieved), the Hill coefficient as well as the maximal response in % of the maximal stimulatory effect obtained with saturating concentrations of L-AP4 were calculated (see FIG. 1).

Chain of human mGlu4 receptor (Q14833 33-912): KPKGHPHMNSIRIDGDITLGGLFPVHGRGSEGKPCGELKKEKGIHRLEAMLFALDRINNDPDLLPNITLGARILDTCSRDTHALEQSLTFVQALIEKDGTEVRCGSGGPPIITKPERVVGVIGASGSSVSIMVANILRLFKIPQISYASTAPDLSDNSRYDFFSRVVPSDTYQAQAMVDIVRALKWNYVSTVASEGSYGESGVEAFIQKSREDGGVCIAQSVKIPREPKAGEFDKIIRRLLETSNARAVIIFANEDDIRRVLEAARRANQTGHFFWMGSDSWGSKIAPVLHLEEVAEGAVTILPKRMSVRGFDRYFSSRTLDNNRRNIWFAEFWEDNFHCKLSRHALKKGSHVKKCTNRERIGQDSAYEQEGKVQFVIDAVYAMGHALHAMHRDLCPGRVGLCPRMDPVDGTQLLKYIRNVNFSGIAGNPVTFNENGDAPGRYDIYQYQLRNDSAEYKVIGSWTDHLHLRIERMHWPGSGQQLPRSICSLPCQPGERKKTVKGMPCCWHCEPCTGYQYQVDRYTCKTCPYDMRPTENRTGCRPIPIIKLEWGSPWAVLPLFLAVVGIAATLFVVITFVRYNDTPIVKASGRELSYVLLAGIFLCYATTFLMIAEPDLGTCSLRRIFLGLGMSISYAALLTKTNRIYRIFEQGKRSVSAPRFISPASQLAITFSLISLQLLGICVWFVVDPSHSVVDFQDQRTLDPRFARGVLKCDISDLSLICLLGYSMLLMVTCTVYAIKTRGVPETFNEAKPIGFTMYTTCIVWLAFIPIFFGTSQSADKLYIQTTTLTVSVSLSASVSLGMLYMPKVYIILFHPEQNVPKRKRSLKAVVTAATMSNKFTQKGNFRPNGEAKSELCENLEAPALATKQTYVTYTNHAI

C[C@@]12CC(=O)N(c3c(F)cc(C#Cc4ccccc4)cc3F)C(=O)N1CCN(c1cccnc1)C2=O [Example 7, (9aS)-7-[2,6-difluoro-4-(2-phenylethynyl)phenyl]-9a-methyl-2-(3-pyridyl)-4,9-dihydro-3H-pyrazino[1,2-c]pyrimidine-1,6,8-trione]
Emax: 126%
EC50: 73 nM

CC(C)(C)Oc1ncc(N2CCN3C(=O)N(c4c(F)cc(C#Cc5ccccc5)cc4F)C(=O)C[C@@]3(C)C2=O)cn1 [Example 38, (9aS)-2-(2-tert-butoxypyrimidin-5-yl)-7-[2,6-difluoro-4-(2-phenylethynyl)phenyl]-9a-methyl-4,9-dihydro-3H-pyrazino[1,2-c]pyrimidine-1,6,8-trione]
Emax: 107%

Cc1cc(N2CCN3C(=O)N(c4c(F)cc(C#Cc5ccccc5)cc4F)C(=O)CC3(C)C2=O)ccn1 (racemic) [Example 11, (9aRS)-7-[2,6-difluoro-4-(2-phenylethynyl)phenyl]-9a-methyl-2-(2-methyl-4-pyridyl)-4,9-dihydro-3H-pyrazino[1,2-c]pyrimidine-1,6,8-trione]
Emax: 119%
EC50: 214 nM

COC[C@@]12CC(=O)N(c3c(F)cc(C#Cc4ccccc4)cc3F)C(=O)N1CCN(c1cccnc1)C2=O [Example 103, (9aR)-7-[2,6-difluoro-4-(2-phenylethynyl)phenyl]-9a-(methoxymethyl)-2-(3-pyridyl)-4,9-dihydro-3H-pyrazino[1,2-c]pyrimidine-1,6,8-trione]
Emax: 118%
EC50: 169 nM

COCC12CC(=O)N(c3c(F)cc(C#Cc4ccccc4)cc3F)C(=O)N1CCN(c1cnn(C)c1)C2=O (racemic) [Example 104, (9aRS)-7-[2,6-difluoro-4-(2-phenylethynyl)phenyl]-9a-(methoxymethyl)-2-(1-methylpyrazol-4-yl)-4,9-dihydro-3H-pyrazino[1,2-c]pyrimidine-1,6,8-trione]
Emax: 148%
EC50: 273 nM

Cn1nccc1N1CCN2C(=O)N(c3c(F)cc(C#Cc4ccccc4)cc3F)C(=O)CC2(C)C1=O (racemic) [Example 64, (9aRS)-7-[2,6-difluoro-4-(2-phenylethynyl)phenyl]-9a-methyl-2-(2-methylpyrazol-3-yl)-4,9-dihydro-3H-pyrazino[1,2-c]pyrimidine-1,6,8-trione]
Emax: 155%
EC50: 125 nM

CC12CC(=O)N(c3c(F)cc(C#Cc4ccccc4)cc3F)C(=O)N1CCN(c1ncccn1)C2=O (racemic) [Example 25, (9aRS)-7-[2,6-difluoro-4-(2-phenylethynyl)phenyl]-9a-methyl-2-pyrimidin-2-yl-4,9-dihydro-3H-pyrazino[1,2-c]pyrimidine-1,6,8-trione]
Emax: 122%
EC50: 135 nM

COCCCn1cc(N2CCN3C(=O)N(c4c(F)cc(C#Cc5ccccc5)cc4F)C(=O)C[C@@]3(C)C2=O)cn1 [Example 72, (9aS)-7-[2,6-difluoro-4-(2-phenylethynyl)phenyl]-2-[1-(3-methoxypropyl)pyrazol-4-yl]-9a-methyl-4,9-dihydro-3H-pyrazino[1,2-c]pyrimidine-1,6,8-trione]
Emax: 149%
EC50: 122 nM

Cc1ccccc1CN1CCN2C(=O)N(c3c(F)cc(C#Cc4ccccc4)cc3F)C(=O)CC2(C)C1=O (racemic) [Example 85, (9aRS)-7-[2,6-difluoro-4-(2-phenylethynyl)phenyl]-9a-methyl-2-(o-tolylmethyl)-4,9-dihydro-3H-pyrazino[1,2-c]pyrimidine-1,6,8-trione]
Emax: 83%
EC50: 205 nM

Cn1ccc(N2CCN3C(=O)N(c4c(F)cc(C#Cc5ccccc5)cc4F)C(=O)C[C@@]3(C)C2=O)n1 [Example 63, (9aS)-7-[2,6-difluoro-4-(2-phenylethynyl)phenyl]-9a-methyl-2-(1-methylpyrazol-3-yl)-4,9-dihydro-3H-pyrazino[1,2-c]pyrimidine-1,6,8-trione]
Emax: 136%
EC50: 165 nM

Cc1nc(N2CCN3C(=O)N(c4c(F)cc(C#Cc5ccccc5)cc4F)C(=O)CC3(C)C2=O)cn1C (racemic) [Example 60, (9aRS)-7-[2,6-difluoro-4-(2-phenylethynyl)phenyl]-2-(1,2-dimethylimidazol-4-yl)-9a-methyl-4,9-dihydro-3H-pyrazino[1,2-c]pyrimidine-1,6,8-trione]
Emax: 137%
EC50: 145 nM

Cn1cc(N2CCN3C(=O)N(c4c(F)cc(C#Cc5ccccc5F)cc4F)C(=O)C[C@@]3(C)C2=O)cn1 [Example 111, (9aS)-7-[2,6-difluoro-4-[2-(2-fluorophenyl)ethynyl]phenyl]-9a-methyl-2-(1-methylpyrazol-4-yl)-4,9-dihydro-3H-pyrazino[1,2-c]pyrimidine-1,6,8-trione]
Emax: 120%
EC50: 56 nM

CCOc1ncc(N2CCN3C(=O)N(c4c(F)cc(C#Cc5ccccc5)cc4F)C(=O)C[C@@]3(C)C2=O)cn1 [Example 39, (9aS or 9aR)-7-[2,6-difluoro-4-(2-phenylethynyl)phenyl]-2-(2-ethoxypyrimidin-5-yl)-9a-methyl-4,9-dihydro-3H-pyrazino[1,2-c]pyrimidine-1,6,8-trione]
Emax: 103%
EC50: 96 nM

CC12CC(=O)N(c3c(F)cc(C#Cc4ccccc4)cc3F)C(=O)N1CCN(Cc1cccnc1)C2=O (racemic) [Example 93, (9aRS)-7-[2,6-difluoro-4-(2-phenylethynyl)phenyl]-9a-methyl-2-(3-pyridylmethyl)-4,9-dihydro-3H-pyrazino[1,2-c]pyrimidine-1,6,8-trione]
Emax: 90%
EC50: 217 nM

C[C@@]12CC(=O)N(c3c(F)cc(C#Cc4ccccc4)cc3F)C(=O)N1CCN(c1ccncc1)C2=O [Example 9, (9aS)-7-[2,6-difluoro-4-(2-phenylethynyl)phenyl]-9a-methyl-2-(4-pyridyl)-4,9-dihydro-3H-pyrazino[1,2-c]pyrimidine-1,6,8-trione]
Emax: 85%
EC50: 29 nM

CC12CC(=O)N(c3c(F)cc(C#Cc4ccccc4)cc3F)C(=O)N1CCN(Cc1ccccn1)C2=O (racemic) [Example 92, (9aRS)-7-[2,6-difluoro-4-(2-phenylethynyl)phenyl]-9a-methyl-2-(2-pyridylmethyl)-4,9-dihydro-3H-pyrazino[1,2-c]pyrimidine-1,6,8-trione]
Emax: 91%
EC50: 198 nM

Cc1cccc(C)c1CN1CCN2C(=O)N(c3c(F)cc(C#Cc4ccccc4)cc3F)C(=O)CC2(C)C1=O (racemic) [Example 86, (9aRS)-7-[2,6-difluoro-4-(2-phenylethynyl)phenyl]-2-[(2,6-dimethylphenyl)methyl]-9a-methyl-4,9-dihydro-3H-pyrazino[1,2-c]pyrimidine-1,6,8-trione]
Emax: 118%
EC50: 68 nM

Cc1nc(N2CCN3C(=O)N(c4c(F)cc(C#Cc5ccccc5)cc4F)C(=O)C[C@@]3(C)C2=O)cn1CC(F)(F)F [Example 61, (9aS)-7-[2,6-difluoro-4-(2-phenylethynyl)phenyl]-9a-methyl-2-[2-methyl-1-(2,2,2-trifluoroethyl)imidazol-4-yl]-4,9-dihydro-3H-pyrazino[1,2-c]pyrimidine-1,6,8-trione]
Emax: 172%
EC50: 272 nM

C[C@@]12CC(=O)N(c3c(F)cc(C#Cc4ccccc4)cc3F)C(=O)N1CCN(c1cn[nH]c1)C2=O [Example 71, (9aS)-7-[2,6-difluoro-4-(2-phenylethynyl)phenyl]-9a-methyl-2-(1H-pyrazol-4-yl)-4,9-dihydro-3H-pyrazino[1,2-c]pyrimidine-1,6,8-trione]
Emax: 182%
EC50: 101 nM
